Laboratory results from ChEMBL document CHEMBL1201862, “PubChem BioAssay data set” (2004).
Activity calls are given as the source filed them.

What was measured:
[1] = MC4R antagonists, dose response, counter-screen for LGR2 antagonist project, cell-based, plate reader, cherry pick (AID 743444); assay type: functional;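 further: transfected HEK 293 cells stimulated with alpha-MSH peptide; potency of inhibitors of the alpha-MSH evoked signal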
[2] = HEK293 cell cytotoxicity, dose response, cytotoxicity control, plate reader, cherry-picked samples (AID 743446); assay type: functional, cell-based
[3] = LGR2 antagonists, dose response, cell-based, HEK293, CRE-luciferase reporter, cherry pick, set 2 (AID 743343); assay type: functional;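 further: transfected cells were stimulated with diluted bursicon conditioned medium after compound addition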
[4] = A549 cell cytotoxicity, dose response, cytotoxicity control, plate reader, cherry-pick, antagonist series (AID 743412); assay type: functional, cell-based
[5] = HepG2 cell cytotoxicity, dose response, cytotoxicity control, plate reader, cherry-pick, antagonist series (AID 743416); assay type: functional, cell-based
Aminopeptidase N = biological target: T1, Aminopeptidase N (Plasmodium falciparum FcB1/Columbia, UniProt O96935); assay: P. falciparum M1AAP inhibitors, biochemical, fluorogenic H-Leu-NHMec substrate, 1536-well (AID 1445); parameters: species or system Plasmodium falciparum 3D7, 3D7
T1 sequence (O96935 whole entry): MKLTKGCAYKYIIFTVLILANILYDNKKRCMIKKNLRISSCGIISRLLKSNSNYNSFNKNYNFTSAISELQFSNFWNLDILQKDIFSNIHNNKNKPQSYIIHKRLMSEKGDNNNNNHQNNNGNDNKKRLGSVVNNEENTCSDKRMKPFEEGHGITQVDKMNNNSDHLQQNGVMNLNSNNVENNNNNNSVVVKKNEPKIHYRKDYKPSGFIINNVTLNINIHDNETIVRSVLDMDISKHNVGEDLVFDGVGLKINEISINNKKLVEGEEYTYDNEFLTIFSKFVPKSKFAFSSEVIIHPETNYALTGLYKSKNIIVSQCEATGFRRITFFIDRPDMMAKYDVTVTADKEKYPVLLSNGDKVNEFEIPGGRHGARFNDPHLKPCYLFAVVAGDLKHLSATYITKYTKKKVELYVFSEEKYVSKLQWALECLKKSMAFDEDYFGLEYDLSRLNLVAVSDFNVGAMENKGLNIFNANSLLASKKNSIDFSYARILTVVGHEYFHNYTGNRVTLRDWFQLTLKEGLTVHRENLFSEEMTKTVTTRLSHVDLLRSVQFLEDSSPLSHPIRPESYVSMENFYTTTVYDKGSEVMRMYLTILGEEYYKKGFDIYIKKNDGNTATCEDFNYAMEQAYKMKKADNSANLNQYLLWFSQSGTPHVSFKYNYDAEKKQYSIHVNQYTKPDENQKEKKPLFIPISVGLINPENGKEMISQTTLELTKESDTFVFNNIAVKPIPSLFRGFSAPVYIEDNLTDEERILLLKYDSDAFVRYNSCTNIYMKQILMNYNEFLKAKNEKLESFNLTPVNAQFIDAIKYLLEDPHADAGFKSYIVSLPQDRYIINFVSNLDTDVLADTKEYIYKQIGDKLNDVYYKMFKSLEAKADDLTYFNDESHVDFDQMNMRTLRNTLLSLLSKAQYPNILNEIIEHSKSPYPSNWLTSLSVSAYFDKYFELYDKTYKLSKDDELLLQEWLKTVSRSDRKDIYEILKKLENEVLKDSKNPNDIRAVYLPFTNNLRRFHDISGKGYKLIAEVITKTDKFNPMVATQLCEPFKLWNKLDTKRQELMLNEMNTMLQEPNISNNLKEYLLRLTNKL

[6] = inhibitors of Vif binding to APOBEC3G peptide, primary screen, biochemical, TR-FRET, GST-Vif 1-94, biotin-A3G peptide, dose response retest (AID 1117319); assay type: functional;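 further: TR-FRET signal of purified GST-Vif binding a biotinylated A3G peptide; inhibitors lower the FRET signal by blocking Vif and A3G binding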
[7] = biological target: T2, Endoribonuclease toxin MazF (Escherichia coli K-12, UniProt P0AE70); assay: MazF toxin RNase activators, dose response, biochemical, fluorescence, single-stranded RNA substrate, uHTS hits (AID 588481); assay type: functional
T2 sequence (P0AE70 whole entry): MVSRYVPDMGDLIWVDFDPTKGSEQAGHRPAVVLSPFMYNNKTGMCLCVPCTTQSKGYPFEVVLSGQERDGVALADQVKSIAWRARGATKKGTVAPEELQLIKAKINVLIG

[8] = biological target: T2, Endoribonuclease toxin MazF; assay: fluorescent RNA oligo signal without MazF, dose response, counter-screen for MazEF activator project, biochemical, fluorescence, single-stranded RNase substrate (AID 588502); assay type: functional
[9] = HepG2 cell cytotoxicity, dose response, cytotoxicity control, cherry-picked samples (AID 1159577); assay type: functional, cell-based
[10] = P. falciparum Dd2 growth inhibitors, dose response, SYBR Green, cherry-picked samples (AID 1159567); assay type: functional, cell-based

Structure (SMILES): COc1ccc2oc(C(=O)N3CCc4ccccc43)c(C)c2c1
- AC50 [1]: 6.24 µM (active)
- AC50 [2]: 33.9 µM (active)
- AC50 [3]: 7.5 µM (active)
- AC50 [4]: 20 µM (active)
- AC50 [5]: 21.5 µM (active)

Structure (SMILES): O=C(CSc1nc2c(c(=O)n1-c1ccc(Cl)cc1)SCC2)NCC1CCCO1 (stereo not drawn)
- IC50 (Aminopeptidase N): 58.3 µM (active)

Structure (SMILES): COCCCn1c(=N)c(C(=O)NCC2CCCO2)cc2c(=O)n3ccccc3nc21 (stereo not drawn)
- IC50 (Aminopeptidase N): 60.2 µM (active)

Structure (SMILES): COCCN(Cc1cc2ccccc2nc1O)C(=O)c1ccccc1OC
- IC50 [6]: > 100 µM (active)

Structure (SMILES): COc1ccc(CCN2C(=O)c3cccc4c(C(=O)N5CCCCC5)ccc(c34)C2=O)cc1OC
- AC50 [1]: 18 µM (active)
- AC50 [2]: 16.7 µM (active)
- AC50 [3]: 21.6 µM (active)
- AC50 [4]: > 52 µM (inactive)
- AC50 [5]: > 52 µM (inactive)

Structure (SMILES): Nc1c(C(=O)C2CC2)sc2nc(-c3cccs3)cc(C(F)(F)F)c12
- EC50 [7]: > 99 µM (inactive)
- EC50 [8]: 10.6 µM (active)

Structure (SMILES): Cc1ccc(/C=C2\SC(=S)N(CCC(=O)Nc3cccnc3)C2=O)cc1
- EC50 [7]: > 99 µM (inactive)
- EC50 [8]: > 99 µM (inactive)

Structure (SMILES): O=S(=O)(c1ccccc1F)N1C[C@@H]2N[C@H](C1)[C@H]2c1ccc(/C=C/c2ccccc2)cc1
- AC50 [9]: 16.1 µM (active)
- AC50 [10]: 3.4 µM (active)

Structure (SMILES): N#C[C@@H]1[C@H](c2ccccc2-c2cccc(F)c2)[C@H](CO)N1C(=O)NC1CCCC1
- AC50 [9]: > 39 µM (inactive)
- AC50 [10]: 6.42 µM (active)

Structure (SMILES): C[C@@H]1CN([C@@H](C)CO)S(=O)(=O)c2ccc(/C=C/c3ccccc3)cc2O[C@H]1CN(C)Cc1cncnc1
- AC50 [9]: > 39 µM (inactive)
- AC50 [10]: 5.17 µM (active)
